Where two headings read alike, the source gives them in different places.
What was measured:
[1] = test system: patients with advanced solid tumors; test: Safety and tolerability (adverse events, CTCAE version 4.03); settings: n = 21
Description: (§1) Safety was appraised throughout the study by the assessment of adverse events (AEs; graded by Common Terminology Criteria for Adverse Events [CTCAE], version 4.03), physical examination, and evaluation of vital signs, ECG, and laboratory data (clinical chemistry and hematology). Dose reductions were not allowed.

[2] = test system: patients with advanced solid tumors; settings: human, in vivo
Description: as §1

[3] = Plasma pharmacokinetics of adavosertib
[4] = test system: ECG intervals in patients with advanced solid tumors; settings: human, in vivo
Description: (§2) On day − 2, patients underwent dECG to determine eligibility by central review. On day − 1, baseline dECG assessments were performed at clock times matched to the planned/scheduled dECG assessment times on days 1 and 3. […] Doses were administered under fasting conditions (2 h pre-dose to 2 h post-dose), with prescribed anti-emetic(s) given orally 30 min prior to each dose [20].
(§3) Patients had their final dECG/PK assessments on day 4, 24 h post-dose. Baseline for dECG assessments was defined as the time-matched observation on day − 1. Triplicate dECG recordings were taken within an approximate 5-min period prior to PK sample collection and as close to the scheduled times as possible. Patients rested for ≥ 10 min prior to dECG recording and were in the same supine body position for all recordings. HR and RR, QT, PR, and QRS interval parameters were recorded. Standardized equipment was provided by the central ECG laboratory. Recorded dECGs were sent to the central ECG laboratory for review and interpretation, using their standard operating procedures and with manual adjudication (3 beat on lead II).

[5] = test system: ECG intervals in patients with advanced solid tumors; test: Digital 12-lead ECG (dECG) assessments, time-matched change from baseline; settings: over the treatment period (days 1–3, 24 h post-dose)
Description: as §2, §3

[6] = design: method as in doi:10.1158/1538-7445.am2019-ct012; settings: after 200 mg bid dosing; cited from earlier work
patients = test system: patients; design: method as in AstraZeneca, data on file, 2022; settings: preliminary data; ref AstraZeneca, data on file, 2022; cited from earlier work
[7] = test system: QTcF interval in patients with advanced solid tumors; settings: human, in vivo
Description: Estimates were made of the mean change in QTcF at the geometric mean Cmax on days 1 and 3 from the fitted model, with corresponding 90% two-sided confidence intervals (CIs).

[8] = test system: patients with advanced solid tumors; settings: cited from earlier work
QTc interval = settings: in vivo; cited from earlier work
[9] = human, in vivo, 225 mg, 2.5 days

Compound: C=CCn1c(=O)c2cnc(Nc3ccc(N4CCN(C)CC4)cc3)nc2n1-c1cccc(C(C)(C)O)n1 [adavosertib]
- AEs with an outcome of death [1]: No AEs with an outcome of death
- Causally related AEs of any grade: Anemia [2]: 1 (4.8) Number of patients (%)
- Causally related AEs of any grade: Constipation [2]: 1 (4.8) Number of patients (%)
- Causally related AEs of any grade: Decreased appetite [2]: 1 (4.8) Number of patients (%)
- Causally related AEs of any grade: Diarrhea [2]: 6 (28.6) Number of patients (%)
- Causally related AEs of any grade: Vomiting [2]: 2 (9.5) Number of patients (%)
- Causally related grade ≥3 AEs: Anemia [2]: 1 (4.8) Number of patients (%)
- Causally related grade ≥3 AEs: Constipation [2]: 0 Number of patients (%)
- Causally related grade ≥3 AEs: Decreased appetite [2]: 0 Number of patients (%)
- Causally related grade ≥3 AEs: Diarrhea [2]: 1 (4.8) Number of patients (%)
- Causally related grade ≥3 AEs: Nausea [2]: 1 (4.8) Number of patients (%)
- Causally related grade ≥3 AEs: Vomiting [2]: 1 (4.8) Number of patients (%)
- Causally related AEs of any grade: Any AE ([2]; 2.5 days): 11 (52.4) Number of patients (%)
- Causally related AEs of any grade: Nausea ([2]; 2.5 days): 6 (28.6) Number of patients (%)
- Causally related grade ≥3 AEs: Any AE ([2]; 2.5 days): 2 (9.5) Number of patients (%)
- Patients who discontinued treatment because of AEs ([2]; 2.5 days): 9.5%
- Patients with AEs ([2]; 2.5 days): 76.2%
- Patients with CTCAE grade 3 anemia ([2]; 2.5 days): 4.8%
- Patients with CTCAE grade 3 diarrhea ([2]; 2.5 days): 4.8%
- Patients with CTCAE grade 3 hypotension ([2]; 2.5 days): 4.8%
- Patients with CTCAE grade 3 nausea ([2]; 2.5 days): 4.8%
- Patients with a serious AE (vomiting, not considered drug related) ([2]; 2.5 days): 4.8%
- Patients with diarrhea (any causality) ([2]; 2.5 days): 33.3%
- Patients with nausea (any causality) ([2]; 2.5 days): 33.3%
- Patients with treatment-related AEs ([2]; 2.5 days): 52.4%
- Patients with treatment-related anemia ([2]; 2.5 days): 4.8%
- Patients with treatment-related constipation ([2]; 2.5 days): 4.8%
- Patients with treatment-related decreased appetite ([2]; 2.5 days): 4.8%
- Patients with treatment-related diarrhea ([2]; 2.5 days): 28.6%
- Patients with treatment-related nausea ([2]; 2.5 days): 28.6%
- Patients with treatment-related vomiting ([2]; 2.5 days): 9.5%
- Patients with vomiting (any causality) ([2]; 2.5 days): 23.8%
- Total number of treatment-related AEs ([2]; 2.5 days): 17
- CLss/F, arithmetic mean (SD) ([3]; day 3): 43.2 L/h
- CLss/F, median ([3]; day 3): 41.5 L/h
- AUC0–12, median ([3]; human, in vivo): 5.383 µM·h
- Cavg, arithmetic mean (SD) ([3]; human, in vivo): 944.8 nM
- Cavg, geometric mean ([3]; human, in vivo): 901.2 nM
- Cavg, median ([3]; human, in vivo): 898.9 nM
- Cmin, arithmetic mean (SD) ([3]; human, in vivo): 517.7 nM
- Cmin, geometric mean ([3]; human, in vivo): 410.4 nM
- Cmin, median ([3]; human, in vivo): 499.0 nM
- Tmax ([3]; human, in vivo): 3 h
- tmax, median ([3]; human, in vivo): 2.5 h
- Accumulation for AUC0–12 over 2.5 days of bid dosing [3, 9]: approximately 2.3 fold
- Accumulation for Cmax over 2.5 days of bid dosing [3, 9]: ~2.1 fold
- AUC(0-t) ([3]; human, in vivo, AUC0–12, arithmetic mean (SD)): 11.3 µM·h
- AUC(0-t) ([3]; human, in vivo, AUC0–12, median): 10.6 µM·h
- Cmax ([3]; human, in vivo, arithmetic mean (SD)): 1500 nM
- Cmax ([3]; human, in vivo, median): 1520 nM
- AUC(0-t) ([3]; human, in vivo, po, 225 mg, AUC0–12, geometric mean): 4.94 µM·h
- Mean change in HR, range over time points ([4]; 1 day): − 1.7 to 2.9
- Mean change in PR interval, range over time points ([4]; 1 day): − 4.4 to 3.5
- Mean change in QRS interval, range over time points ([4]; 1 day): − 1.2 to 1.4
- Mean change in RR interval, range over time points ([4]; 1 day): − 38.0 to 22.3
- Patients with QTcF increase > 60 ms at any time during treatment ([4]; 1 day): 0 n (%)
- Patients with QTcF value > 450 ms and increase > 30 ms ([4]; 1 day): 0 n (%)
- Patients with QTcF value > 450 ms at any time during treatment ([4]; 1 day): 0 n (%)
- Patients with QTcF value > 480 ms at any time during treatment ([4]; 1 day): 0 n (%)
- Patients with QTcF value > 500 ms and increase > 60 ms ([4]; 1 day): 0 n (%)
- Patients with QTcF value > 500 ms at any time during treatment ([4]; 1 day): 0 n (%)
- Mean change in HR, range over time points ([4]; 3 day): 1.4 to 9.5 bpm
- Mean change in PR interval, range over time points ([4]; 3 day): − 4.4 to 0.3
- Mean change in QRS interval, range over time points ([4]; 3 day): − 1.8 to − 2.0
- Mean change in RR interval, range over time points ([4]; 3 day): − 102.5 to − 30.4
- Patients with QTcF increase > 30 ms at any time during treatment ([4]; 3 day): 1 (4.8) n (%)
- Patients with QTcF increase > 60 ms at any time during treatment ([4]; 3 day): 0 n (%)
- Patients with QTcF value > 450 ms and increase > 30 ms ([4]; 3 day): 0 n (%)
- Patients with QTcF value > 450 ms at any time during treatment ([4]; 3 day): 0 n (%)
- Patients with QTcF value > 480 ms at any time during treatment ([4]; 3 day): 0 n (%)
- Patients with QTcF value > 500 ms and increase > 60 ms ([4]; 3 day): 0 n (%)
- Patients with QTcF value > 500 ms at any time during treatment ([4]; 3 day): 0 n (%)
- Patients with QTcF > 450 ms [5]: No patient
- Patients with increase in QTcF of > 60 ms [5]: No patient
- AUC0–12 [6]: 8.1 µM·h
- Adverse drug reactions to adavosertib monotherapy (patients): include QTc prolongation
- Day effect estimate, concentration–ΔQTcF model [7]: −1.6
- Intercept estimate, concentration–ΔQTcF model [7]: −2.4
- Upper limits of predicted 90% CIs for ΔQTcF, sensitivity analysis [7]: < 1.5 ms
- Dose proportionality of exposure ([8]; qd dosing, between 200 and 300 mg, single and multiple doses, preliminary): exposure increased more than dose proportionally
- Maximum tolerated dose ([8]; twice daily (bid) over 2.5 days per week per 21-day cycle): 225 mg

Compound: CN[C@H]1CC[C@@H](c2ccc(Cl)c(Cl)c2)c2ccccc21 [sertraline]
- Risk of TdP (QTc interval): conditional risk of TdP

Source: article PMC10326086 (Cancer Chemotherapy and Pharmacology, 2023)
